Laboratory results: PubChem BioAssay (NCI)
Values joined by “and” are separate entries in the source; they are usually repeats but may differ in a detail not shown here. Equal entries are not always repeated.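 Cells were grown in 96-well plates and exposed to each compound for 48 hours at five concentrations; endpoints were interpolated linearly between bracketing concentrations, or set to the highest concentration if not reached. Abbreviation: GI50, concentration required for 50% inhibition of growth. TGI marks complete inhibition of growth.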 *1 amine or outer side, *2 acyl side, *3 side chain or, on linkers, in order; H or OH if unused. Where a SMILES comes first, the peptide text is derived from it. Bridges are numbered along the chain shown (N, C = ends). Roman numbers before positions name the chains, in order. [ ]: non-standard residue; d: D form. Actinocin(1to9) = Cc1c2oc3c(C)ccc(C(=O)[*:2])c3nc-2c(C(=O)[*:1])c(N)c1=O; NMeV = CN[CH](C(=O)O)C(C)C; Sar = CNCC(=O)O

Experiments:
Experiment in all cases: NCI-60 cell line screen, 48 h
CAKI-1 renal = test system: CAKI-1 renal
DU-145 prostate = test system: DU-145 prostate
HCC-2998 colon = test system: HCC-2998 colon
HL-60(TB) leukemia = test system: HL-60(TB) leukemia
HS 578T breast = test system: HS 578T breast
MOLT-4 leukemia = test system: MOLT-4 leukemia
SNB-19 CNS = test system: SNB-19 CNS
MDA-N = test system: MDA-N

SMILES	TGI (CAKI-1 renal) [µM]	TGI (DU-145 prostate) [µM]	TGI (HCC-2998 colon) [µM]	TGI (HL-60(TB) leukemia) [µM]	TGI (HS 578T breast) [µM]	TGI (MOLT-4 leukemia) [µM]	TGI (SNB-19 CNS)	TGI (MDA-N) [µM]	GI50 (HCC-2998 colon) [µM]
CSc1ncc2c(C#N)c3n(C)c4ccccc4n3c(=O)c2n1	> 100	> 100	> 100	> 100	> 100	> 100	> 100 µM	–	–
CN(C)C12C=CC=CC3=C(c4ccccc4)C(c4ccccc4)=C(c4ccccc4)C31c1ccccc1C2 (centres undefined)	–	–	> 100	> 100	> 100	> 100	> 100 µM	> 100	–
C=C(C)C1Cc2c(cc3c(c2O)c(=O)c2ccccc2n3C)O1 (centres undefined)	11.2	–	28.3	–	28.7	1.99	12 µM	12.2	–
CC(C)=NC(C(=O)O)C(C)(C)S (centres undefined)	> 100	> 100	–	> 100	> 100	> 100	> 100 µM	> 100	–
O=C(Oc1ccc(C(c2c(O)c3ccccc3oc2=O)c2c(O)c3ccccc3oc2=O)cc1)c1ccc(C(=O)c2ccccc2)cc1	57.4	> 100	36	–	> 100	41.3	37.2 µM	> 100	–
Cc1c(CN2CCOCC2)c(CN2CCOCC2)c(C)n1-c1ccc(Cl)cn1	> 100	> 100	> 100	–	> 100	> 100	> 100 µM	> 100	–
COc1ccc(NCc2cccc3c(=O)c4ccc(Cl)cc4oc23)cc1	> 100	–	> 100	–	–	> 100	–	> 100	–
CCN(CC)CCC(=O)c1ccc(Cl)c(Cl)c1	–	> 100	> 100	> 100	45.9	82.8	> 100 µM	–	–
O=C(c1ccc(Cl)c(Cl)c1)N(C(=S)OC12CC3CC(CC(C3)C1)C2)c1ccccc1	> 100	> 100	> 100	69.9	> 100	–	> 100 µM	> 100	–
COc1ccc(CC2NC(=O)C(NC(=O)c3c4nc5c(C(=O)NC6C(=O)NC(Cc7ccc(OC)cc7)C(=O)N7CCCC7C(=O)N(C)CC(=O)N(C)C(C(C)C)C(=O)OC6C)ccc(C)c5oc-4c(C)c(=O)c3N)C(C)OC(=O)C(C(C)C)N(C)C(=O)CN(C)C(=O)C3CCCN3C2=O)cc1 (centres undefined) (I: TY(Me)P[Sar][NMeV] / II: TY(Me)P[Sar][NMeV]; ester I:1-I:C, II:1-II:C; linker I:N-II:N via Actinocin(1to9); configuration not given here)	0.306	0.0843	–	< 0.001	0.265	–	3.43 µM and 0.539 µM	0.0876	0.013
COc1ccc(C[C@@H]2OC3(C=CC(=O)CC3Sc3ccccc3)O[C@H]2Cc2ccc(OC)cc2)cc1 (some centres undefined)	4.97	11.6	–	6.06	4.19	2.18	10.3 µM	4.98	–
COC(=O)C1=C(N)C2=C(N)Oc3ccccc3C2CC1=C(C#N)C#N (centres undefined)	72.2	61.9	32.9	> 100	97.9	> 100	70.4 µM	–	–
NN/C(=N\S(=O)(=O)c1cc(S(=O)(=O)c2ccccc2)cs1)Nc1ccc(Cl)cc1	> 100	> 100	–	32.7	–	56.2	> 100 µM	59.2	–
O=c1nc(N2CCCCC2)sc2[nH]c3ccccc3c12	> 100	> 100	–	> 100	> 100	> 100	> 100 µM	> 100	–
c1ccc(C2(c3cc4ccccc4[nH]3)OCCO2)nc1	> 100	> 100	> 100	> 100	> 100	–	> 100 µM	–	–
COC(=O)C1=C(C)NC(CF)=C(C(=O)OC)C1c1cccc2c(=O)c3ccccc3oc12 (centres undefined)	62.3	> 100	> 100	> 100	> 100	> 100	–	–	–
O=C(O[C@H](/C=C/c1ccccc1)P1(=O)N(Cc2ccccc2)[C@H]2CCCC[C@@H]2N1Cc1ccccc1)c1ccccc1	5.93	–	> 100	> 100	> 100	–	> 100 µM	> 100	–
CC(=O)OC1CCn2c1nc1c2C(=O)C=C(N2CC2)C1=O (centres undefined)	0.124	12.7	3.07	0.494	–	0.208	10.8 µM	1.06	–
Cc1ccc(NC(=O)CC(=O)N2N=C(N(c3ccccc3)c3ccccc3)CC2c2ccccc2)cc1 (centres undefined)	> 100	> 100	> 100	> 100	86	> 100	> 100 µM	–	–
O=S(=O)(Cc1ccccc1)c1nnc(S(=O)(=O)c2ccc(Cl)cc2)s1	54	34.3	–	–	39.8	> 100	60.2 µM	33	–
O=C1CC(=O)NC(=NN2C(=O)CSC2c2ccc(Cl)cc2)N1 (centres undefined)	> 100	> 100	> 100	–	> 100	> 100	–	> 100	–
COC(=O)C(Cc1c(-c2[nH]c3ccccc3c2CC(NC(C)=O)C(=O)OC)[nH]c2ccccc12)NC(C)=O (centres undefined)	> 100	> 100	–	> 100	> 100	> 100	> 100 µM	> 100	–
O=C(Cc1csc2[n+]1C(=O)/C(=C/c1ccc(Cl)cc1)S2)Nc1ccccc1	> 100	> 100	39.3	74.2	> 100	–	> 100 µM	> 100	–
CN(C)CCNc1ncnc2nc(-c3ccccc3)c(-c3ccccc3)nc12	> 100	> 100	–	> 100	> 100	76	–	> 100	–
CC(/C=C/c1ccccc1)=N\NC(=S)N/N=C(C)/C=C/c1ccccc1	–	> 100	> 100	> 100	> 100	> 100	74.7 µM	> 100	–
COC1(OC)CCCCCCCCC(OC)(OC)CCCCCCCC1	> 100	> 100	> 100	> 100	> 100	–	> 100 µM	> 100	–
